The values that follow come from US10450316B2, “Certain protein kinase inhibitor” (Chongqing Fochon Pharmaceutical Co., Ltd., priority 2015, dated 2019).

What is called IC50 is the concentration that inhibits the measured activity by half. Read a high IC50 as weaker potency.

The structures appear in SMILES notation. Where only a bound is given, the exact number is not on record here.

This assay deals with BE(2)-C cell. Nature of the assay: Cell proliferation assay (MTS) in BE(2)-C cells. Type of assay: cell-based. To be noted: Homo sapiens, inhibition of BE(2)-C cell proliferation, 48 h. In short, it runs like this:
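BE(2)-C cells (3000/well, DMEM + 10% FBS) were treated for 48 h at 37 °C with compound at 1.5–10000 nM in nine concentrations. Viability was measured by MTS (2 h, stopped with SDS) at 490/650 nm, and IC50 was calculated from the dose-response.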
`CCN1CC2(C1)CN(Cc1ccc(Nc3ncc(F)c(-c4cc(F)c5nc6n(c5c4)C(C)(C)CC6)n3)nc1)C2` [Example 119, N-(5-((6-ethyl-2,6-diazaspiro[3.3]heptan-2-yl)methyl)pyridin-2-yl)-5-fluoro-4-(5-fluoro-1,1-dimethyl-2,3-dihydro-1H-benzo[d]pyrrolo[1,2-a]imidazol-7-yl)pyrimidin-2-amine] returned an IC50 of 10 to 100 nM.
With `CC1(C)CCc2nc3c(F)cc(-c4nc(Nc5ccc(CN6CCC7(CCNCC7)CC6)cn5)ncc4F)cc3n21` [Example 120, N-(5-((3,9-diazaspiro[5.5]undecan-3-yl)methyl)pyridin-2-yl)-5-fluoro-4-(5-fluoro-1,1-dimethyl-2,3-dihydro-1H-benzo[d]pyrrolo[1,2-a]imidazol-7-yl)pyrimidin-2-amine] the figure was over 100 nM; with `CN1CCC2(CC1)CCN(Cc1ccc(Nc3ncc(F)c(-c4cc(F)c5nc6n(c5c4)C(C)(C)CC6)n3)nc1)CC2` [Example 121, 5-fluoro-4-(5-fluoro-1,1-dimethyl-2,3-dihydro-1H-benzo[d]pyrrolo[1,2-a]imidazol-7-yl)-N-(5-((9-methyl-3,9-diazaspiro[5.5]undecan-3-yl)methyl)pyridin-2-yl)pyrimidin-2-amine], over 100 nM; with `CCN1CCC2(CC1)CCN(Cc1ccc(Nc3ncc(F)c(-c4cc(F)c5nc6n(c5c4)C(C)(C)CC6)n3)nc1)CC2` [Example 122, N-(5-((9-ethyl-3,9-diazaspiro[5.5]undecan-3-yl)methyl)pyridin-2-yl)-5-fluoro-4-(5-fluoro-1,1-dimethyl-2,3-dihydro-1H-benzo[d]pyrrolo[1,2-a]imidazol-7-yl)pyrimidin-2-amine], 10 to 100 nM.
The figure for `CC1(C)CCc2nc3c(F)cc(-c4nc(Nc5ccc(CN6CC7CNCC7C6)cn5)ncc4F)cc3n21` (centres unmarked) [Example 123, 5-fluoro-4-(5-fluoro-1,1-dimethyl-2,3-dihydro-1H-benzo[d]pyrrolo[1,2-a]imidazol-7-yl)-N-(5-((hexahydropyrrolo[3,4-c]pyrrol-2(1H)-yl)methyl)pyridin-2-yl)pyrimidin-2-amine] is over 100 nM; for `CN1CC2CN(Cc3ccc(Nc4ncc(F)c(-c5cc(F)c6nc7n(c6c5)C(C)(C)CC7)n4)nc3)CC2C1` (centres unmarked) [Example 124, 5-fluoro-4-(5-fluoro-1,1-dimethyl-2,3-dihydro-1H-benzo[d]pyrrolo[1,2-a]imidazol-7-yl)-N-(5-((5-methylhexahydropyrrolo[3,4-c]pyrrol-2(1H)-yl)methyl)pyridin-2-yl)pyrimidin-2-amine] it is 10 to 100 nM; for `CCN1CC2CN(Cc3ccc(Nc4ncc(F)c(-c5cc(F)c6nc7n(c6c5)C(C)(C)CC7)n4)nc3)CC2C1` (centres unmarked) [Example 125, N-(5-((5-ethylhexahydropyrrolo[3,4-c]pyrrol-2(1H)-yl)methyl)pyridin-2-yl)-5-fluoro-4-(5-fluoro-1,1-dimethyl-2,3-dihydro-1H-benzo[d]pyrrolo[1,2-a]imidazol-7-yl)pyrimidin-2-amine] it is 10 to 100 nM.
`CC1(C)CCc2nc3c(F)cc(-c4nc(Nc5ccc(CN6C7CCC6CNC7)cn5)ncc4F)cc3n21` [Example 126, N-(5-((3,8-diazabicyclo[3.2.1]octan-8-yl)methyl)pyridin-2-yl)-5-fluoro-4-(5-fluoro-1,1-dimethyl-2,3-dihydro-1H-benzo[d]pyrrolo[1,2-a]imidazol-7-yl)pyrimidin-2-amine] came in with an IC50 of 10 to 100 nM.
The figure for `CN1CC2CCC(C1)N2Cc1ccc(Nc2ncc(F)c(-c3cc(F)c4nc5n(c4c3)C(C)(C)CC5)n2)nc1` [Example 127, 5-fluoro-4-(5-fluoro-1,1-dimethyl-2,3-dihydro-1H-benzo[d]pyrrolo[1,2-a]imidazol-7-yl)-N-(5-((3-methyl-3,8-diazabicyclo[3.2.1]octan-8-yl)methyl)pyridin-2-yl)pyrimidin-2-amine] is under 10 nM; for `CCN1CC2CCC(C1)N2Cc1ccc(Nc2ncc(F)c(-c3cc(F)c4nc5n(c4c3)C(C)(C)CC5)n2)nc1` [Example 128, N-(5-((3-ethyl-3,8-diazabicyclo[3.2.1]octan-8-yl)methyl)pyridin-2-yl)-5-fluoro-4-(5-fluoro-1,1-dimethyl-2,3-dihydro-1H-benzo[d]pyrrolo[1,2-a]imidazol-7-yl)pyrimidin-2-amine] it is under 10 nM; for `CC1(C)CCc2nc3c(F)cc(-c4nc(Nc5ccc(CN6CC7CCC(C6)N7)cn5)ncc4F)cc3n21` [Example 129, N-(5-((3,8-diazabicyclo[3.2.1]octan-3-yl)methyl)pyridin-2-yl)-5-fluoro-4-(5-fluoro-1,1-dimethyl-2,3-dihydro-1H-benzo[d]pyrrolo[1,2-a]imidazol-7-yl)pyrimidin-2-amine] it is 10 to 100 nM.
As for `CN1C2CCC1CN(Cc1ccc(Nc3ncc(F)c(-c4cc(F)c5nc6n(c5c4)C(C)(C)CC6)n3)nc1)C2` [Example 130, 5-fluoro-4-(5-fluoro-1,1-dimethyl-2,3-dihydro-1H-benzo[d]pyrrolo[1,2-a]imidazol-7-yl)-N-(5-((8-methyl-3,8-diazabicyclo[3.2.1]octan-3-yl)methyl)pyridin-2-yl)pyrimidin-2-amine], the IC50 lay in the range of 10 to 100 nM.
The figure for `CCN1C2CCC1CN(Cc1ccc(Nc3ncc(F)c(-c4cc(F)c5nc6n(c5c4)C(C)(C)CC6)n3)nc1)C2` [Example 131, N-(5-((8-ethyl-3,8-diazabicyclo[3.2.1]octan-3-yl)methyl)pyridin-2-yl)-5-fluoro-4-(5-fluoro-1,1-dimethyl-2,3-dihydro-1H-benzo[d]pyrrolo[1,2-a]imidazol-7-yl)pyrimidin-2-amine] is 10 to 100 nM.
The figure for `Fc1cnc(Nc2ccc(CN3CC4CC(C3)N4)cn2)nc1-c1cc(F)c2nc3n(c2c1)C1(CC3)CC1` [Example 132, N-(5-((3,6-diazabicyclo[3.1.1]heptan-3-yl)methyl)pyridin-2-yl)-5-fluoro-4-(5-fluoro-2,3-dihydrospiro[benzo[d]pyrrolo[1,2-a]imidazole-1,1′-cyclopropan]-7-yl)pyrimidin-2-amine] is over 100 nM; for `CN1C2CC1CN(Cc1ccc(Nc3ncc(F)c(-c4cc(F)c5nc6n(c5c4)C4(CC6)CC4)n3)nc1)C2` [Example 133, 5-fluoro-4-(5-fluoro-2,3-dihydrospiro[benzo[d]pyrrolo[1,2-a]imidazole-1,1′-cyclopropan]-7-yl)-N-(5-((6-methyl-3,6-diazabicyclo[3.1.1]heptan-3-yl)methyl)pyridin-2-yl)pyrimidin-2-amine] it is 10 to 100 nM; for `CCN1C2CC1CN(Cc1ccc(Nc3ncc(F)c(-c4cc(F)c5nc6n(c5c4)C4(CC6)CC4)n3)nc1)C2` [Example 134, N-(5-((6-ethyl-3,6-diazabicyclo[3.1.1]heptan-3-yl)methyl)pyridin-2-yl)-5-fluoro-4-(5-fluoro-2,3-dihydrospiro[benzo[d]pyrrolo[1,2-a]imidazole-1,1′-cyclopropan]-7-yl)pyrimidin-2-amine] it is over 100 nM.
Consider `Fc1cnc(Nc2ccc(CN3C[C@@H]4C[C@H]3CN4)cn2)nc1-c1cc(F)c2nc3n(c2c1)C1(CC3)CC1` [Example 135, N-(5-(((1S,4S)-2,5-diazabicyclo[2.2.1]heptan-2-yl)methyl)pyridin-2-yl)-5-fluoro-4-(5-fluoro-2,3-dihydrospiro[benzo[d]pyrrolo[1,2-a]imidazole-1,1′-cyclopropan]-7-yl)pyrimidin-2-amine], for which the IC50 is over 1000 nM.
The figure for `CN1C[C@@H]2C[C@H]1CN2Cc1ccc(Nc2ncc(F)c(-c3cc(F)c4nc5n(c4c3)C3(CC5)CC3)n2)nc1` [Example 136, 5-fluoro-4-(5-fluoro-2,3-dihydrospiro[benzo[d]pyrrolo[1,2-a]imidazole-1,1′-cyclopropan]-7-yl)-N-(5-(((1S,4S)-5-methyl-2,5-diazabicyclo[2.2.1]heptan-2-yl)methyl)pyridin-2-yl)pyrimidin-2-amine] is over 100 nM; for `CCN1C[C@@H]2C[C@H]1CN2Cc1ccc(Nc2ncc(F)c(-c3cc(F)c4nc5n(c4c3)C3(CC5)CC3)n2)nc1` [Example 137, N-(5-(((1S,4S)-5-ethyl-2,5-diazabicyclo[2.2.1]heptan-2-yl)methyl)pyridin-2-yl)-5-fluoro-4-(5-fluoro-2,3-dihydrospiro[benzo[d]pyrrolo[1,2-a]imidazole-1,1′-cyclopropan]-7-yl)pyrimidin-2-amine] it is 10 to 100 nM.
With `C[C@@]12CNC[C@]1(C)CN(Cc1ccc(Nc3ncc(F)c(-c4cc(F)c5nc6n(c5c4)C4(CC6)CC4)n3)nc1)C2` [Example 138, N-(5-(((3aR,6aS)-3a,6a-dimethylhexahydro-pyrrolo[3,4-c]pyrrol-2(1H)-yl)methyl)pyridin-2-yl)-5-fluoro-4-(5-fluoro-2,3-dihydro-spiro[benzo[d]pyrrolo[1,2-a]imidazole-1,1′-cyclopropan]-7-yl)pyrimidin-2-amine], the IC50 was over 1000 nM.
With `CN1C[C@@]2(C)CN(Cc3ccc(Nc4ncc(F)c(-c5cc(F)c6nc7n(c6c5)C5(CC7)CC5)n4)nc3)C[C@@]2(C)C1` [Example 139, 5-fluoro-4-(5-fluoro-2,3-dihydrospiro[benzo[d]pyrrolo[1,2-a]imidazole-1,1′-cyclopropan]-7-yl)-N-(5-(((3aR,6aS)-3a,5,6a-trimethylhexahydro-pyrrolo[3,4-c]pyrrol-2(1H)-yl)methyl)pyridin-2-yl)pyrimidin-2-amine] the figure was over 1000 nM; with `CCN1C[C@@]2(C)CN(Cc3ccc(Nc4ncc(F)c(-c5cc(F)c6nc7n(c6c5)C5(CC7)CC5)n4)nc3)C[C@@]2(C)C1` [Example 140, N-(5-(((3aR,6aS)-5-ethyl-3a,6a-dimethyl-hexahydropyrrolo[3,4-c]pyrrol-2(1H)-yl)methyl)pyridin-2-yl)-5-fluoro-4-(5-fluoro-2,3-dihydro-spiro[benzo[d]pyrrolo[1,2-a]imidazole-1,1′-cyclopropan]-7-yl)pyrimidin-2-amine], over 100 nM.
With `Fc1cnc(Nc2ccc(CN3CC4CNC4C3)cn2)nc1-c1cc(F)c2nc3n(c2c1)C1(CC3)CC1` (centres unmarked) [Example 141, N-(5-((3,6-diazabicyclo[3.2.0]heptan-3-yl)methyl)pyridin-2-yl)-5-fluoro-4-(5-fluoro-2,3-dihydro-spiro[benzo[d]pyrrolo[1,2-a]imidazole-1,1′-cyclo-propan]-7-yl)pyrimidin-2-amine] the figure was over 1000 nM.
